Assay results reported in US10590143B2, “Herbicidally active (alkynyl-phenyl)-substituted cyclic dione compounds and derivatives thereof” (Syngenta Limited, priority 2013, dated 2020).

Assays:
Assay in all cases: Biological Example 2 glasshouse assay for herbicidal activity
Type in all cases: in vivo
Avena fatua (AVEFA) = conditions: post-emergence, 360 h, 14 or 15 DAA, 0.2% v/v X-77, read-out: percentage phytotoxicity AVEFA
Method in brief: (§1)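 Herbicide applied as a spray (IF50 formulation, 0.2% v/v X-77 adjuvant) to soil-grown plants pre-emergence or post-emergence. Ratings were taken 20 DAA or 14–15 DAA respectively, on a 0–100% scale.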

[1] = tested on: Beta vulgaris (BEAVA, sugarbeet); conditions: post-emergence, 360 h, 14 or 15 DAA, 0.2% v/v X-77, read-out: percentage phytotoxicity BEAVA
Method in brief: (§2)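 Visual % phytotoxicity (100% = total damage, 0% = none), scored 14 or 15 DAA post-emergence or 20 DAA pre-emergence. The spray was the IF50 emulsifiable formulation in aqueous 0.2% v/v X-77 at rate-dependent concentration. Glasshouse: 24/18 °C day/night for warm-season BRAPL, 20/16 °C for cool-season wheat, ALOMY and sugarbeet.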

[2] = tested on: Triticum aestivum (TRZAW, winter wheat); conditions: post-emergence, 360 h, 30 g/ha, 14 or 15 DAA, 0.2% v/v X-77, read-out: percentage phytotoxicity TRZAW
Method in brief: as §2

[3] = tested on: Glycine max (GLXMA, soybean); conditions: post-emergence, 360 h, 14 or 15 DAA, 0.2% v/v X-77, read-out: percentage phytotoxicity GLXMA
Method in brief: as §1

[4] = tested on: Zea mays (ZEAMX, corn, maize, e.g. volunteer corn); conditions: Zea mays, post-emergence, 360 h, 14 or 15 DAA, 0.2% v/v X-77, read-out: percentage phytotoxicity ZEAMX
Method in brief: as §1

[5] = tested on: Brachiaria plantaginea (BRAPL); conditions: Urochloa plantaginea, post-emergence, 360 h, 14 or 15 DAA, 0.2% v/v X-77, read-out: percentage phytotoxicity BRAPL
Method in brief: as §2

[6] = tested on: Alopecurus myosuroides (ALOMY); conditions: post-emergence, 360 h, 14 or 15 DAA, 0.2% v/v X-77, read-out: percentage phytotoxicity ALOMY
Method in brief: as §2

[7] = tested on: Echinochloa crus-galli (ECHCG); conditions: Echinochloa crus-galli, post-emergence, 360 h, 14 or 15 DAA, 0.2% v/v X-77, read-out: percentage phytotoxicity ECHCG
Method in brief: as §1

Lolium perenne (LOLPE) = conditions: Lolium perenne, post-emergence, 360 h, 14 or 15 DAA, 0.2% v/v X-77, read-out: percentage phytotoxicity LOLPE
Method in brief: as §1

Setaria faberi (SETFA) = conditions: post-emergence, 360 h, 14 or 15 DAA, 0.2% v/v X-77, read-out: percentage phytotoxicity SETFA
Method in brief: as §1

[8] = tested on: Digitaria sanguinalis (DIGSA); conditions: post-emergence, 360 h, 14 or 15 DAA, 0.2% v/v X-77, read-out: percentage phytotoxicity DIGSA
Method in brief: as §1

CC#Cc1cc(F)c(C2=C(OC(=O)c3ccccc3)C3CCC(C3)C2=O)c(OC)c1 (stereo not drawn) [Compound P5, [3-(2-fluoro-6-methoxy-4-prop-1-ynyl-phenyl)-4-oxo-2-bicyclo[3.2.1]oct-2-enyl]benzoate]
pest or weed control at 30 g/ha (Avena fatua (AVEFA); 30 g/ha): 80% | pest or weed control at 250 g/ha (Avena fatua (AVEFA); 250 g/ha): 90% | plant injury at 30 g/ha ([1]; 30 g/ha): 0% | plant injury at 250 g/ha ([1]; 250 g/ha): 0% | plant injury at 30 g/ha [2]: 50% | plant injury at 30 g/ha ([3]; 30 g/ha): 0% | plant injury at 250 g/ha ([3]; 250 g/ha): 0% | pest or weed control at 30 g/ha ([4]; 30 g/ha): 90% | pest or weed control at 250 g/ha ([4]; 250 g/ha): 100% | pest or weed control at 30 g/ha ([5]; 30 g/ha): 90% | pest or weed control at 250 g/ha ([5]; 250 g/ha): 100% | pest or weed control at 30 g/ha ([6]; 30 g/ha): 70% | pest or weed control at 250 g/ha ([6]; 250 g/ha): 90% | pest or weed control at 30 g/ha ([7]; 30 g/ha): 100% | pest or weed control at 250 g/ha ([7]; 250 g/ha): 100% | pest or weed control at 30 g/ha (Lolium perenne (LOLPE); 30 g/ha): 80% | pest or weed control at 250 g/ha (Lolium perenne (LOLPE); 250 g/ha): 100% | pest or weed control at 30 g/ha (Setaria faberi (SETFA); 30 g/ha): 80% | pest or weed control at 250 g/ha (Setaria faberi (SETFA); 250 g/ha): 90% | pest or weed control at 30 g/ha ([8]; 30 g/ha): 100% | pest or weed control at 250 g/ha ([8]; 250 g/ha): 100%
